Among the data in patent publication US12358886B2, “Heterocyclic compounds for use in the treatment of cancer” (Artios Pharma Limited, priority 2019, dated 2025) are IC50 values, retold here.

Each structure is given as a SMILES string.

In the first assay the target is Polθ protein (amino acids 2-2590) (Homo sapiens, UniProt O75417). Kind of assay: Polθ full length enzyme potency assay (PicoGreen). Particulars: Polθ IC50 (nM), full length N-His, C-term FLAG tagged Polθ, PicoGreen fluorescence, 12 point concentration response.
Chain of Polθ protein (amino acids 2-2590) (O75417 2-2590): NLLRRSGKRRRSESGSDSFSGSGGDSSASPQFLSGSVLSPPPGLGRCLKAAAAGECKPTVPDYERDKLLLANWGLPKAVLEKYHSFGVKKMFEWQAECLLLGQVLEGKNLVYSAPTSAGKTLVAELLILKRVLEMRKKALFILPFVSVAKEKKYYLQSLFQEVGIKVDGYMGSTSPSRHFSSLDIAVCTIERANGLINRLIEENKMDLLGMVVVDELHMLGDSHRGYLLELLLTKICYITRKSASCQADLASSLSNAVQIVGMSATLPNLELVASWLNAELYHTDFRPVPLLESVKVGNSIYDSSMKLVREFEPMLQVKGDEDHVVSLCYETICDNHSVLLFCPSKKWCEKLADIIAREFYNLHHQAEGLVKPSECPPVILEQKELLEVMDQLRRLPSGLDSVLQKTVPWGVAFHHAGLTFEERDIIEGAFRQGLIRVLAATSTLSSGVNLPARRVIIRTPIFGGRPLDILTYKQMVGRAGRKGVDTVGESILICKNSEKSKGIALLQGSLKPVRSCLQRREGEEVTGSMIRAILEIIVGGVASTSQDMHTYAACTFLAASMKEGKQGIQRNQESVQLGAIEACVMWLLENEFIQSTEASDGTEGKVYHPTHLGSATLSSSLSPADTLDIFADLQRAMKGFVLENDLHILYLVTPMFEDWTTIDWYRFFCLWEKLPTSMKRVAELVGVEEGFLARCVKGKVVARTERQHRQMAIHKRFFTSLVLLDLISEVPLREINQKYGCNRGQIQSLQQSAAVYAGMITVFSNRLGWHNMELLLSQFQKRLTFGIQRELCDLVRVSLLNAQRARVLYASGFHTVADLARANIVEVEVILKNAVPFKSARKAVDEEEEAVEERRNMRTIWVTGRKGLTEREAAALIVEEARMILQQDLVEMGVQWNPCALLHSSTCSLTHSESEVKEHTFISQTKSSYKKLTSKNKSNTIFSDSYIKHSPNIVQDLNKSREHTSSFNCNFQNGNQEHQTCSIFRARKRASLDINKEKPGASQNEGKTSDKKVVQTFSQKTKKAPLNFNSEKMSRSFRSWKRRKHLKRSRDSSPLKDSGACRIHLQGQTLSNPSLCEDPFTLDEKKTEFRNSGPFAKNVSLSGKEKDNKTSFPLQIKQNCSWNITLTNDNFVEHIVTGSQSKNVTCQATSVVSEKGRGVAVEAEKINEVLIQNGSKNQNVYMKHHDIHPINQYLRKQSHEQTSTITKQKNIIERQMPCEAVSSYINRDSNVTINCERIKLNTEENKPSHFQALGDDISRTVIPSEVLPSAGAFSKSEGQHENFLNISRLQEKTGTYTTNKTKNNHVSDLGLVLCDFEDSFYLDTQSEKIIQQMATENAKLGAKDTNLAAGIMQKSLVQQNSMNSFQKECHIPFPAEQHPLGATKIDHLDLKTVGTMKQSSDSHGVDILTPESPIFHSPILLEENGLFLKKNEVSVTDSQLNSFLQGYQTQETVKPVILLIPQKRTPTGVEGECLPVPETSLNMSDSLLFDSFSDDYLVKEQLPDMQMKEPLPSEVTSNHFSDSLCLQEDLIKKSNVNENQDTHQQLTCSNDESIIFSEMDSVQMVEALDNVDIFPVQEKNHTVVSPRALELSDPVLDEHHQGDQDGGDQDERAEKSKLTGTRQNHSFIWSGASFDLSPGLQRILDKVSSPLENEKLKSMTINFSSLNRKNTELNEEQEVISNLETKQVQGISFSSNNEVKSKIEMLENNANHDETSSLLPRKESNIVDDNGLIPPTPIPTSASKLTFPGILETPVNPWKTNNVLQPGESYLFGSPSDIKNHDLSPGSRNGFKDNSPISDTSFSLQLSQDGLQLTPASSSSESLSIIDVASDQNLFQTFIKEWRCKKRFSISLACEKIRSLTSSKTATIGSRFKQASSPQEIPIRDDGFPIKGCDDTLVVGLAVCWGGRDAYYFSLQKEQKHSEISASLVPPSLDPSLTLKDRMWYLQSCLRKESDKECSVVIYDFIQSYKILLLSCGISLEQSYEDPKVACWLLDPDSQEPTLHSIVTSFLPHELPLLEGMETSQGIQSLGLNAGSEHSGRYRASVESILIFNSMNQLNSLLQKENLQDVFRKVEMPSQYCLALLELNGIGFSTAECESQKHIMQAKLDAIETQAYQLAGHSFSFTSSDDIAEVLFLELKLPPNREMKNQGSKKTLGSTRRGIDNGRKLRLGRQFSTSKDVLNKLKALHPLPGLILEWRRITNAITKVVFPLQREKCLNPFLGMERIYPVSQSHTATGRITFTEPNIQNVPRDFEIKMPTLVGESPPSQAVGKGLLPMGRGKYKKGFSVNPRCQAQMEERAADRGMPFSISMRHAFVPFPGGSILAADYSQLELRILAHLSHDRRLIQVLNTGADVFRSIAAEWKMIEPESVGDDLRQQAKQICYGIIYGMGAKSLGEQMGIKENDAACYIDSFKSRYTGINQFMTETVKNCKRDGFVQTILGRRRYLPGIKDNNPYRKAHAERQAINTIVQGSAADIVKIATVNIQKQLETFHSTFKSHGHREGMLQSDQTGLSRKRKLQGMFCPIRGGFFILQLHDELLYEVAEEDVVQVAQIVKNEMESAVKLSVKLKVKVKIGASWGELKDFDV
As for `CCc1cc(N2C[C@@H](O)C[C@H]2C(=O)N(C)c2cccc(C)c2)ncc1C` [Example 35, (2S,4S)-1-(4-Ethyl-5-methylpyridin-2-yl)-4-hydroxy-N-methyl-N-(m-tolyl)pyrrolidine-2-carboxamide], the IC50 was found to be 620 nM.
The same measure, in the same setting: with `Cc1cc(C(F)(F)F)cc(N2C(=O)OC[C@H]2C(=O)N(C)c2ccc(Cl)c(C)c2)n1` [Example 84, (S)—N-(4-Chloro-3-methylphenyl)-N-methyl-3-(6-methyl-4-(trifluoromethyl)pyridin-2-yl)-2-oxooxazolidine-4-carboxamide] the figure was 6 nM.
The same measure, in the same setting: then `Cc1cc(C(F)(F)F)cc(N2C(=O)NC[C@H]2C(=O)N(C)c2ccc3sccc3n2)n1` [Example 237, (S)—N-Methyl-3-(6-methyl-4-(trifluoromethyl)pyridin-2-yl)-2-oxo-N-(thieno[3,2-b]pyridin-5-yl)imidazolidine-4-carboxamide], with 37 nM.
Still for that read-out and setting: with `C=Cc1ccc(N(C)C(=O)[C@@H]2COC(=O)N2c2cc(C(F)(F)F)cc(C)n2)c(F)c1` [Example 111, (S)—N-(2-Fluoro-4-vinylphenyl)-N-methyl-3-(6-methyl-4-(trifluoromethyl)pyridin-2-yl)-2-oxooxazolidine-4-carboxamide] the figure was 18 nM; with `Cc1cccc(N(C)C(=O)[C@@H]2C[C@H](O)CN2c2nc(C)cc(C(C)C)c2C#N)c1` [Example 33, (2S,4S)-1-(3-Cyano-4-isopropyl-6-methylpyridin-2-yl)-4-hydroxy-N-methyl-N-(m-tolyl)pyrrolidine-2-carboxamide], 30 nM.
Regarding `Cc1cc(C(F)(F)F)cc(N2C(=O)OC[C@H]2C(=O)N(C)c2ccc(Cl)cc2F)n1` [Example 97, (S)-N-(4-Chloro-2-fluorophenyl)-N-methyl-3-(6-methyl-4-(trifluoromethyl)pyridin-2-yl)-2-oxooxazolidine-4-carboxamide], the IC50 was 11 nM.
The same measure, in the same setting: then `Cc1cc(C(F)(F)F)cc(N2C(=O)N(CCNS(C)(=O)=O)C[C@H]2C(=O)N(C)c2ccc(F)c(Cl)c2)n1` [Example 187, (S)—N-(3-Chloro-4-fluorophenyl)-N-methyl-3-(6-methyl-4-(trifluoromethyl)pyridin-2-yl)-1-(2-(methylsulfonamido)ethyl)-2-oxoimidazolidine-4-carboxamide], with 22 nM; and `COc1cc(C(F)(F)F)c(C#N)c(N2C[C@@H](O)C[C@H]2C(=O)N(C)c2cccc(C)c2)n1` [Example 30, (2S,4S)-1-(3-Cyano-6-methoxy-4-(trifluoromethyl)pyridin-2-yl)-4-hydroxy-N-methyl-N-(m-tolyl)pyrrolidine-2-carboxamide], with 514 nM.
Same read-out and setting: then `CCN(C(=O)[C@@H]1C[C@H](N2CC(O)C2)CN1c1cc(C(F)(F)F)cc(C)n1)c1ccc(F)c(F)c1` [Example 130, (2S,4S)-N-(3,4-Difluorophenyl)-N-ethyl-4-(3-hydroxyazetidin-1-yl)-1-(6-methyl-4-(trifluoromethyl)pyridin-2-yl)pyrrolidine-2-carboxamide], with 100 nM; and `Cc1cc(C(F)(F)F)cc(N2C(=O)N(CC3CN(C)C3)C[C@H]2C(=O)N(C)c2ccc(F)c(Cl)c2F)n1` [Example 189, (S)—N-(3-Chloro-2,4-difluorophenyl)-N-methyl-3-(6-methyl-4-(trifluoromethyl)pyridin-2-yl)-1-((1-methylazetidin-3-yl)methyl)-2-oxoimidazolidine-4-carboxamide], with 32 nM.
On the same count and under the same terms, then `CCN(C(=O)[C@@H]1C[C@H](N2CCOC(CO)C2)CN1c1nc(C)cc(C(F)(F)F)c1C#N)c1ccc(F)c(C)c1` (stereo partly drawn) [Example 150, (2S,4S)-1-(3-Cyano-6-methyl-4-(trifluoromethyl)pyridin-2-yl)-N-ethyl-N-(4-fluoro-3-methylphenyl)-4-(2-(hydroxymethyl)morpholino)pyrrolidine-2-carboxamide], with 11 nM; and `Cc1cc(C(F)(F)F)cc(N2C(=O)OC[C@H]2C(=O)N(C)c2ccc3cc[nH]c3c2)n1` [Example 126, (S)—N-(1H-Indol-6-yl)-N-methyl-3-(6-methyl-4-(trifluoromethyl)pyridin-2-yl)-2-oxooxazolidine-4-carboxamide], with 11 nM.
For `Cc1cc(C(F)(F)F)cc(N2C(=O)N(CCOS(N)(=O)=O)C[C@H]2C(=O)N(C)c2ccc(F)c(Cl)c2F)n1` [Example 227, (S)-2-(4-((3-Chloro-2,4-difluorophenyl)(methyl)carbamoyl)-3-(6-methyl-4-(trifluoromethyl)pyridin-2-yl)-2-oxoimidazolidin-1-yll sulfamate], the concentration for half-maximal inhibition (IC50) is 6 nM.
The molecule `Cc1cc(C(F)(F)F)c(C#N)c(N2[C@H](C)CC[C@H]2C(=O)N(C)c2ccc(F)c(Cl)c2)n1` [Example 241, (2S,5R)—N-(3-Chloro-4-fluorophenyl)-1-(3-cyano-6-methyl-4-(trifluoromethyl)pyridin-2-yl)-N,5-dimethylpyrrolidine-2-carboxamide] gave an IC50 of 240 nM.
`Cc1cc(C(F)(F)F)cc(N2C(=O)OC[C@H]2C(=O)N(C)c2ccc(F)c(Br)c2)n1` [Example 93, (S)-N-(3-Bromo-4-fluorophenyl)-N-methyl-3-(6-methyl-4-(trifluoromethyl)pyridin-2-yl)-2-oxooxazolidine-4-carboxamide]: the IC50 was determined as 16 nM.
In the case of `Cc1cc(C(F)(F)F)cc(N2C(=O)NC[C@H]2C(=O)N(C)c2ccc3occ(C)c3n2)n1` [Example 236, (S)—N-Methyl-3-(6-methyl-4-(trifluoromethyl)pyridin-2-yl)-N-(3-methylfuro[3,2-b]pyridin-5-yl)-2-oxoimidazolidine-4-carboxamide], the IC50 turned out to be 14 nM.
Still for that read-out and setting: then `Cc1cc(C(F)(F)F)cc(N2C(=O)OC[C@H]2C(=O)N(C)c2cccc(N)n2)n1` [Example 175, (S)—N-(6-Aminopyridin-2-yl)-N-methyl-3-(6-methyl-4-(trifluoromethyl)pyridin-2-yl)-2-oxooxazolidine-4-carboxamide], with 519 nM.
The same measure, in the same setting: with `Cc1cc(C(F)(F)F)cc(N2C(=O)N(CCN3CCOCC3)C[C@H]2C(=O)N(C)c2ccc(F)c(Cl)c2F)n1` [Example 195, (S)-N-(3-Chloro-2,4difluorophenyl)-N-methyl-3-(6-methyl-4-(trifluoromethyl)pyridin-2-yl)-1-(2-morpholinoethyl)-2-oxoimidazolidine-4-carboxamide] the figure was 4 nM; with `Cc1cc(C(F)(F)F)cc(N2C(=O)NC[C@H]2C(=O)N(C)c2ccc3c(C)n[nH]c3c2)n1` [Example 238, (S)—N-Methyl-N-(3-methyl-1H-indazol-6-yl)-3-(6-methyl-4-(trifluoromethyl)pyridin-2-yl)-2-oxoimidazolidine-4-carboxamide], 28 nM; with `Cc1cc(C(F)(F)F)cc(N2C(=O)NC[C@H]2C(=O)N(C)c2ccc3cc[nH]c3n2)n1` [Example 233, (S)—N-Methyl-3-(6-methyl-4-(trifluoromethyl)pyridin-2-yl)-2-oxo-N-(1H-pyrrolo[2,3-b]pyridin-6-yl)imidazolidine-4-carboxamide], 3 nM.
With `CCN(C(=O)[C@@H]1C[C@H](N2CCOC(CO)C2)CN1c1nc(C)cc(C(F)(F)F)c1C#N)c1ccc(C)c(Cl)c1` (stereo partly drawn) [Example 149, (2S,4S)-N-(3-Chloro-4-methylphenyl)-1-(3-cyano-6-methyl-4-(trifluoromethyl)pyridin-2-yl)-N-ethyl-4-(2-(hydroxymethyl)morpholino)pyrrolidine-2-carboxamide], the IC50 came out at 5 nM.
The same measure, in the same setting: then `Cc1cc(C(F)(F)F)cc(N2C(=O)N(CCCN3CCNCC3)C[C@H]2C(=O)N(C)c2ccc(F)c(Cl)c2F)n1` [Example 220, (S)—N-(3-Chloro-2,4-difluorophenyl)-N-methyl-3-(6-methyl-4-(trifluoromethyl)pyridin-2-yl)-2-oxo-1-(3-(piperazin-1-yl)propyl)imidazolidine-4-carboxamide], with 11 nM; and `Cc1cc(C(F)(F)F)cc(N2C(=O)[C@@H](O)[C@@H](O)[C@H]2C(=O)N(C)c2ccc3cc[nH]c3n2)n1` [Example 166, (2S,3S,4S)-3,4-Dihydroxy-N-methyl-1-(6-methyl-4-(trifluoromethyl)pyridin-2-yl)-5-oxo-N-(1H-pyrrolo[2,3-b]pyridin-6-yl)pyrrolidine-2-carboxamide], with 7 nM.
Still for that read-out and setting: then `Cc1cc(C(F)(F)F)cc(N2C(=O)[C@H](O)[C@H](O)[C@H]2C(=O)N(C)c2ccc(F)c(Cl)c2F)n1` [Example 71, (2S,3R,4R)—N-(3-Chloro-2,4-difluorophenyl)-3,4-dihydroxy-N-methyl-1-(6-methyl-4-(trifluoromethyl)pyridin-2-yl)-5-oxopyrrolidine-2-carboxamide], with 10 nM; and `CCN(C(=O)[C@@H]1C[C@H](N2CCOCC2)C(=O)N1c1cc(C(F)(F)F)cc(C)n1)c1ccc(F)c(Cl)c1` [Example 63, (2S,4S)—N-(3-Chloro-4-fluorophenyl)-N-ethyl-1-(6-methyl-4-(trifluoro-methyl)pyridin-2-yl)-4-morpholino-5-oxopyrrolidine-2-carboxamide], with 410 nM; and `CN(C(=O)[C@@H]1COC(=O)N1c1cc(C(C)(C)C)cc(Cl)n1)c1ccc(F)c(Cl)c1` [Example 122, (S)-3-(4-(tert-Butyl)-6-chloropyridin-2-yl)-N-(3-chloro-4-fluorophenyl)-N-methyl-2-oxooxazolidine-4-carboxamide], with 41 nM.
As to `Cc1cc(C(F)(F)F)cc(N2C(=O)NC[C@H]2C(=O)N(C)c2ccc(F)c(Cl)c2)n1` [Example 156, (S)—N-(3-Chloro-4-fluorophenyl)-N-methyl-3-(6-methyl-4-(trifluoromethyl)pyridin-2-yl)-2-oxoimidazolidine-4-carboxamide], the IC50 was 4 nM.

The assay is the same for the next values; noted with them: read-out: Polθ IC50; full length N-His, C-term FLAG tagged Polθ, PicoGreen fluorescence, 12 point concentration response.
For `Cc1cc(C(F)(F)F)cc(N2C(=O)OC[C@H]2C(=O)N(c2ccc(F)c(Cl)c2)C(C)C)n1` [Example 104, (S)-N-(3-Chloro-4-fluorophenyl)-N-isopropyl-3-(6-methyl-4-(trifluoromethyl)pyridin-2-yl)-2-oxooxazolidine-4-carboxamide], the 50% inhibitory concentration (IC50) was 35 nM.
